# Test results from patent US20250154212A1, “METHOD OF DISRUPTING MEMORY AND LIPOPEPTIDE FOR USE IN SUCH METHOD” (The Research Foundation for The State University of New York, priority 2023, published 2025).
# Entries after “also recorded” stand apart in the source; their conditions may differ. Where no end group is shown, it is not given here. The star is where a group is joined. Myristoyl = CCCCCCCCCCCCCC(=O)*
# Test system: spatial long-term memory
# Test: Active place avoidance, intrahippocampal injection, wild-type mice
# Format: in vivo, mouse
# Details: for spatial memory retention (time to first enter shock zone), 3-day memory: 5 nmol in 0.5 μl per hippocampus 1 day after conditioning; for learning and retention of a new memory (place avoidance in Context B): conditioned 2 days after injection, retention 3 days later
# Experimental: For spatial long-term memory experiments, we adapted the approach used in Garcia-Osta et al. (82). Mice were ˜12-weeks old at surgery. Briefly, to implant the injection cannula hardware, mice were anesthetized by an intraperitoneal (i.p.) injection of a mixture of dexmedetomidine ([…] body weight) and ketamine (28 mg/kg body weight), and mounted in a Kopf stereotaxic frame (Tujunga, CA). The tips of guide cannula (Plastics One, Roanoke, VA; Part Numbers: C235GS-5-2.0) were targeted above the injection target in the dorsal hippocampus (AP-1.94 mm; ML±1.00 mm; DV-0.90 mm). The other injection hardware (Part Numbers: C235DCs-5, 303DC/1; cannula dummy, cannula cap, respectively) was assembled, and antisedan (0.65 mg/kg body weight i.p.) was administered to reverse the sedation at the end of surgery.
# Three to four weeks after surgery, the animals received active place avoidance training. Before testing the effect of the drug injection on place avoidance, the animals received a bilateral injection of vehicle (PBS [pH 7.4] 0.5 μl/side) and were left in the home cage to habituate to the procedure. Depending on the experimental design, injection of vehicle or drug, either ζ-stat or K-ZAP (5 nmol in 0.5 μl PBS/side), is 1 day or 4 weeks after the training session. During the injection, the animals were restrained, the cannula cap and dummy removed, and the injection needle (Plastics One, Roanoke, VA; Part Numbers: C235IS-5) inserted into the guide cannula so that it protruded from the end of the guide by 0.5 mm. The other end of the needle was connected to a 10 μl Hamilton syringe via Tygon tubing. The drug or vehicle was infused for 1 min, and after the infusion the needle was left in place for 5 min before removal. The animals were then returned to their home cages until the memory retention tests that were conducted 2 days later.
# Active place avoidance was conducted with a commercial computer-controlled system (Bio-Signal Group, Acton, MA). The mouse was placed on a 40-cm diameter circular arena rotating at 1 rpm. The specialized software, Tracker (Bio-Signal Group, Acton, MA), was used to detect the animal's position 30 times per second by video tracking from an overhead camera. A clear wall made from polyethylene terephthalate glycol-modified (PET-G) was placed on the arena to prevent the animal from jumping off the elevated arena surface. A 5-pole shock grid was placed on the rotating arena, and the shock was scrambled across the 5-poles when the mouse entered the shock zone. All experiments used the “Room+Arena−” task variant that challenges the mouse on the rotating arena to avoid a shock zone that was a stationary 60° sector (7). Every 33 ms, the software determined the mouse's position, whether it was in the shock zone, and whether to deliver shock. After the animal enters the shock zone for 500 ms, a constant current foot-shock (60 Hz, 500 ms) was delivered and repeated with the interval of 1500 ms until the mouse left the shock zone. The shock intensity was 0.2 or 0.3 mA, which was the minimum amplitude to elicit flinch or escape responses. The animal was forced to actively avoid the designated shock zone because the arena rotation periodically transported it into the shock area.
# The tracked animal positions with timestamps were analyzed offline (TrackAnalysis, Bio-Signal Group, Acton, MA) to extract several end-point measures. The time to first enter the shock zone estimates ability to avoid shock and was taken as an index of between-session memory. The number of entrances within one trial was taken as another index to examine the animal learning curve throughout all training trials. A pretraining habituation period on the apparatus equivalent in time to a training session, but without shock, was provided.
# The training schedule was as follows: 2 h after a 30-min pretraining habituation, the animals received three 30-min training trials, with an intertrial interval of 2 h. […]
Compound,"spatial memory retention (time to first enter shock zone), 3-day memory (tested 2 days post-injection)","spatial memory retention (time to first enter shock zone), 3-day memory (tested 2 days post-injection, listed as z-stat)",learning and retention of a new memory (place avoidance in Context B),learning and retention of a new memory (place avoidance in Context B) (listed as z-stat),"remote spatial memory retention, 30-day memory (5 nmol in 0.5 μl/side injected 4 weeks after training, tested 2 days post-injection)"
"O=S(=O)(O)c1cc(O)c2c(S(=O)(=O)O)cc(S(=O)(=O)O)cc2c1 [ζ-stat, 1-naphthol-3,6,8-trisulphonic acid]",persistent loss of retention,disrupts spatial memory retention; also recorded: disrupt memory retention for the established memory,learn to avoid and remember a new second location as well as the mice that had received only vehicle,do not disrupt learning or retention of a new memory,–
myr-N-FVRNSLERRSVRMKRPS-C (Myristoyl-FVRNSLERRSVRMKRPS) [K-ZAP],disrupts established spatial long-term memory retention; also recorded: loss of memory retention,–,–,–,disrupts remote spatial memory; also recorded: loss of memory retention 30 days post-training
